Data on 8 molecules can be found in patent US20240010684A1, “MASP INHIBITORY COMPOUNDS AND USES THEREOF” (BAYER AKTIENGESELLSCHAFT, priority 2020, published 2024).

Molecules are shown by their SMILES. Like-named read-outs stand apart in the source and are kept apart here. Where a SMILES comes first, the peptide text is derived from it. Bridges are numbered along the chain shown (N, C = ends). [ ]: non-standard residue; d: D form. tBuAla = CC(C)(C)C[C@H](N)C(=O)O; Pen = CC(C)(S)[C@H](N)C(=O)O; Dap = NC[C@H](N)C(=O)O; Ahx = NCCCCCC(=O)O

What is called IC50 is the concentration that inhibits the measured activity by half.

One test deals with rat MASP1 (Rattus norvegicus (Rat), UniProt Q8CHN8). The test can be described thus: Biochemical rat MASP1 assay (FRET substrate). The text has this:
A truncated cDNA sequence of rat MASP1encoding the fragment corresponding to the amino acids 302-704 with a C-terminal His Tag and N-terminal Ig-kappa secretion signal (SEQ ID No: 4) was subcloned into the mammalian expression vector pcDNA3.1 (Invitrogen).
The MASP1 or MASP2 expression vectors were transfected into the HEK293 (ATCC No. CRL-1573) cell line using Lipofectamine LTX® Reagent (Thermo-Fischer), as described by the manufacturer. The mature form of the recombinant rat MASP1 and MASP2 proteases were secreted into the culture medium. The MASP1 and MASP2 proteins were purified from the conditioned media by affinity chromatography on Ni-NTA Superflow resin (Qiagen) as described by the manufacturer.
4.2 Biochemical Rat MASP1 Assay.
Recombinant rat MASP1 enzyme produced in the HEK 293 cells was diluted in the reaction buffer (50 mM HEPES pH 8,0; 100 mM NaCl; 0,01% CHAPS; 0.5 mM Gluthathione) to the concentration of 4 nM and 25 μl was transferred into each single well of 384-well white microtiter plate (Greiner Bio One 781075). 1 μl of the inhibitor compound solution (dissolved in DMSO, at the corresponding concentration) or pure DMSO as a control was added to the same wells. The enzymatic reaction was initiated by addition of 25 μl of 40 μM solution of the FRET substrate Dabcyl-[…]-Glu(Edans)-NH2; (Dabcyl-4-((4-(dimethylamino)phenyl)azo)benzoic acid; Edans-5-[(2-Aminoethyl) amino]naphthalene-1-sulfonyl; custom synthesis by Jerini Peptide Technologies, Berlin) in the reaction buffer. The microtiter plate was incubated for 60-120 min at the temperature of 32 C. The increase of fluorescence intensity was measured in appropriate fluorescence plate reader (e.g. TECAN Ultra) using excitation wavelength of 340 nm and emission wavelength of 490 nm. IC50 values were calculated from percentage of inhibition of rat […] activity as a function of test compound concentration.

In a further test the target is human MASP1 (Homo sapiens (Human), UniProt P48740). The test is described as follows: Biochemical human MASP1 assay (FRET substrate). In a few lines:
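Recombinant human MASP1 (aa 297-699, C-terminal His tag, HEK293-expressed, Ni-NTA purified) diluted to 20 nM in 50 mM HEPES pH 8,0, 100 mM NaCl, 0,01% CHAPS, 0.5 mM glutathione, preincubated with compound in DMSO; reaction started with 20 μM ABZ/Dnp FRET substrate solution. Fluorescence (ex 320/em 420 nm) after 60-120 min at 32 C; IC50 from % inhibition.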

The next test has as its target rat MASP2 (Rattus norvegicus (Rat), UniProt Q9JJS8). The test is described as follows: Biochemical rat MASP2 assay (FRET substrate). An excerpt:
The MASP1 or MASP2 expression vectors were transfected into the HEK293 (ATCC No. CRL-1573) cell line using Lipofectamine LTX® Reagent (Thermo-Fischer), as described by the manufacturer. […] The MASP1 and M[…] were purified from the conditioned media by affinity chromatography on Ni-NTA Superflow resin (Qiagen) as described by the manufacturer.

The target in another test is human MASP2 (Homo sapiens (Human), UniProt O00187). The test can be described thus: Biochemical human MASP2 assay (FRET substrate). In a few lines: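 Mature recombinant human MASP2, expressed in HEK293 and purified by Ni-NTA affinity, was reacted with a DABCYL FRET peptide substrate (added as a 60 μM solution) for 60-120 min at 32 C. Fluorescence increase was read at ex 340/em 490 nm; IC50 was derived from % inhibition versus compound concentration.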
Sequence of human MASP2 (O00187 other isoform, or with tags, fused parts or gaps): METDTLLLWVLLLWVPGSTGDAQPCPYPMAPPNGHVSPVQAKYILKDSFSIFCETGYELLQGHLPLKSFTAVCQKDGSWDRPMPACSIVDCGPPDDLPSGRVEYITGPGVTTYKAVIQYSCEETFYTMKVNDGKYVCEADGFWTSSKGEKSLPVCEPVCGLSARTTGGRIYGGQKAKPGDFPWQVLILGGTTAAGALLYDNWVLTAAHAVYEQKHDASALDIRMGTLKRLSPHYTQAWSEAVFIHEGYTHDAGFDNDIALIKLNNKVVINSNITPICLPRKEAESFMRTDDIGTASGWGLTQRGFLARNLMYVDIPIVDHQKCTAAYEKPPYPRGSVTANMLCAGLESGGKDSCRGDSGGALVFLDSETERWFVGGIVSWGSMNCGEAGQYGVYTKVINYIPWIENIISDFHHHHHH

Test [1] concerns Human C3-DEPOSITION SERUM. The test is described as follows: C3 deposition assay, human serum on mannan-coated plates. The class given is biochemical. In a few lines: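 Plates coated overnight at 4° C with S. cerevisiae mannan (10 μg/mL, pH 9.6), blocked with 1% BSA in TBS 2 h at 37° C; washes in TBS/0.05% Tween 20/5 mM CaCl2. Antibodies diluted in wash buffer with 0.5% BSA. Colorimetric read-out at 450 nm.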

Setting [2] is: Average IC50, recombinant rat MASP1, read-out: rat MASP1 IC50.
[3] abbreviates: Average IC50, recombinant human MASP1, read-out: human MASP1 IC50.
The mark [4] stands for this setting: Average IC50, recombinant rat MASP2, read-out: rat MASP2 IC50.
[5] abbreviates: Average IC50, recombinant human MASP2, read-out: human MASP2 IC50.
[6] abbreviates: Average IC50, read-out: Human C3-DEPOSITION SERUM IC50.

Sequence of rat MASP1 (Q8CHN8 other isoform, or with tags, fused parts or gaps): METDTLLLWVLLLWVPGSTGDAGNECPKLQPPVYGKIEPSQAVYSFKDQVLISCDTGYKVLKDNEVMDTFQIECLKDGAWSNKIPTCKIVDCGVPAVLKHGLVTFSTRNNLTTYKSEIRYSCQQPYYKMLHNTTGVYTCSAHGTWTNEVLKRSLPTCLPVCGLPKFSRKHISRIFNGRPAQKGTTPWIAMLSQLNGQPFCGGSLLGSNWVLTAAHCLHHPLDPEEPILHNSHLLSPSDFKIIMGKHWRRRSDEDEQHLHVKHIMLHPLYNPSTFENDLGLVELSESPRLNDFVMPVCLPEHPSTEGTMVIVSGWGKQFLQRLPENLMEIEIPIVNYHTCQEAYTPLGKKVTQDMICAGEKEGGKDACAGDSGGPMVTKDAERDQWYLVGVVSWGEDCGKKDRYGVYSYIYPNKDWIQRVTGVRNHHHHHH
Sequence of rat MASP2 (Q9JJS8 other isoform, or with tags, fused parts or gaps): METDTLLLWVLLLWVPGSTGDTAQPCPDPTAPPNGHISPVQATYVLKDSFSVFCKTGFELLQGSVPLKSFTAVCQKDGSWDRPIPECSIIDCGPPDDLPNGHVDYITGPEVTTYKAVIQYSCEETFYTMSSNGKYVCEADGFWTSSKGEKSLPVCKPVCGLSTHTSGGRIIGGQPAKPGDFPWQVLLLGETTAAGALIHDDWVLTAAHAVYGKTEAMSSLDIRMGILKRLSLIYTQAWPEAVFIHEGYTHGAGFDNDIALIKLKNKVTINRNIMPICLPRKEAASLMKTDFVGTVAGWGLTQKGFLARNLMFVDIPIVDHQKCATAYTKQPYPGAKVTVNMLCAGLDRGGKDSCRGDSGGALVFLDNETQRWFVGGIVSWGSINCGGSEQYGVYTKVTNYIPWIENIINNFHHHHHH
Sequence of human MASP1 (P48740 other isoform, or with tags, fused parts or gaps): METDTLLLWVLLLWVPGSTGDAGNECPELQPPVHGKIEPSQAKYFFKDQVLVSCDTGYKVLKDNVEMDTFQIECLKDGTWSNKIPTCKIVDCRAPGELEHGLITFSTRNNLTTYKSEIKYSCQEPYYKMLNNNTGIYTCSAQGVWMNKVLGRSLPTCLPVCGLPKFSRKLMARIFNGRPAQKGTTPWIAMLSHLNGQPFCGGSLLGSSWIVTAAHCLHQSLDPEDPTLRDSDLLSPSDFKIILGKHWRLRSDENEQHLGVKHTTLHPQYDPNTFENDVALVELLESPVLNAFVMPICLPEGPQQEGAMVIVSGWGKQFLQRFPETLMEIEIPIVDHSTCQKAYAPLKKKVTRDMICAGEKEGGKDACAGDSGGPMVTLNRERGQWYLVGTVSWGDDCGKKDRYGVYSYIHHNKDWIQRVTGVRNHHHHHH

As to `CC[C@H](C)[C@@H]1NC(=O)[C@@H]2CSSC[C@H](NC(=O)[C@H](Cc3ccc(O)cc3)NC(=O)CNC(=O)[C@H](CC(=O)O)NC(=O)[C@@H]3CCCN3C1=O)C(=O)N[C@@H](CO)C(=O)N[C@@H](CCCNC(=N)N)C(=O)N[C@@H](CO)C(=O)N[C@@H](Cc1ccc(O)cc1)C(=O)N1CCC[C@H]1C(=O)N1CCC[C@H]1C(=O)N[C@@H](C(C)C)C(=O)N2` [Ref. No 8, reference compound] (cyclo(CIPDGYCSRSYPPV); disulfide 1-7), the half-inhibitory concentration (IC50) on rat MASP1 (setting [2]) is 1 µM; on human MASP1 (setting [3]) it was 8.13 µM; at rat MASP2 (setting [4]) it was 0.126 µM.

Take `CC[C@H](C)[C@@H]1NC(=O)c2ccc(cc2)CNC(=O)CCCCCNC(=O)[C@@H]2CCCN2C(=O)[C@H]([C@@H](C)CC)NC(=O)[C@H]2NC(=O)[C@H]([C@@H](C)CC)NC(=O)[C@@H]3CCCN3C(=O)[C@@H]3CCCN3C(=O)[C@H](CC(C)(C)C)NC(=O)[C@H](CO)NC(=O)[C@H](CCCNC(=N)N)NC(=O)[C@H](CO)NC(=O)[C@H](CSSC2(C)C)NC1=O` [Example 68, N-{3-[(1R,4S,7S,13S,19S,22S,25S,28S,31R,34S,51S,57S)-4,34,57-tri[(2S)-butan-2-yl]-19-(2,2-dimethylpropyl)-22,28-bis(hydroxymethyl)-60,60-dimethyl-3,6,12,18,21,24,27,30,33,36,43,50,56,59-tetradecaoxo-61,62-dithia-2,5,11,17,20,23,26,29,32,35,42,49,55,58-tetradecaazahexacyclo[29.28.4.2^37,400.0^7,110.0^13,170.0^51,55]pentahexaconta-37,39,64-trien-25-yl]propyl}guanidine]: the IC50 on rat MASP1 worked out at 0.0308 µM; at human MASP2, 0.00257 µM; at human MASP1 it was 0.0061 µM; on rat MASP2, 0.00297 µM.

For the molecule `CC[C@H](C)[C@@H]1NC(=O)[C@@H]2CCCN2C(=O)[C@@H]2CCCN2C(=O)[C@H]([C@@H](C)CC)NC(=O)[C@@H]2CSSC[C@H](NC(=O)[C@H]([C@@H](C)O)NC(=O)[C@H](CCCCN)NC(=O)[C@H](CO)NC1=O)C(=O)N[C@@H](CCCNC(=N)N)C(=O)NCC(=O)N[C@@H](CC(=O)O)C(=O)N1CCC[C@H]1C(=O)N[C@@H](Cc1ccccc1)C(=O)N2` [Ref. No 12, reference compound] (cyclo(RGDPFCIPPISKTC); disulfide 6-14), the IC50 at rat MASP1 (setting [2]) amounted to 1 µM; on human MASP2 (setting [5]), 5 µM; on human MASP1 (setting [3]) it was 4.8 µM; at rat MASP2 (setting [4]) it was 1 µM.

Consider `CC[C@H](C)[C@@H]1NC(=O)[C@H](C)NC(=O)CCCCCNC(=O)[C@H]([C@@H](C)CC)NC(=O)[C@H]2NC(=O)[C@H]([C@@H](C)CC)NC(=O)[C@@H]3CCCN3C(=O)[C@@H]3CCCN3C(=O)[C@H](CC(C)(C)C)NC(=O)[C@H](CO)NC(=O)[C@H](CCCNC(=N)N)NC(=O)[C@H](CO)NC(=O)[C@H](CSSC2(C)C)NC1=O` [Example 72, N-{3-[(5aS,11S,14S,17S,20S,23R,26S,29S,39S,42R,45S,47aS)-26,39,45-tri[(2S)-butan-2-yl]-11-(2,2-dimethylpropyl)-14,20-bis(hydroxymethyl)-29,48,48-trimethyl-5,10,13,16,19,22,25,28,31,38,41,44,47-tridecaoxohexatetracontahydro-5H-23,42-(methanodithiomethano)dipyrrolo[2,1-1:2′,1′-o][1,4,7,10,13,16,19,22,25,28,31,34,37]tridecaazacyclotritetracontin-17-yl]propyl}guanidine] (cyclo(AICSRS[tBuAla]PPI[Pen]I[Ahx]); disulfide 3-11), for which the IC50 at rat MASP1 (setting [2]) came to 0.085 µM; at human MASP2 (setting [5]), 0.048 µM; on human MASP1 (setting [3]), 0.0063 µM; at rat MASP2 (setting [4]), 0.014 µM.

For `CC[C@H](C)[C@@H]1NC(=O)CNC(=O)CCCCCNC(=O)[C@H](CC(=O)O)NC(=O)[C@@H]2CCCN2C(=O)[C@H]([C@@H](C)CC)NC(=O)[C@H]2NC(=O)[C@H]([C@@H](C)CC)NC(=O)[C@@H]3CCCN3C(=O)[C@@H]3CCCN3C(=O)[C@H](CC(C)(C)C)NC(=O)[C@H](CO)NC(=O)[C@H](CCCNC(=N)N)NC(=O)[C@H](CO)NC(=O)[C@H](CSSC2(C)C)NC1=O` [Example 28] (cyclo([Ahx]GICSRS[tBuAla]PPI[Pen]IPD); disulfide 4-12), the IC50 turned out to be 0.079 µM on rat MASP1 (setting [2]), 0.029 µM at human MASP2 (setting [5]), 0.019 µM at human MASP1 (setting [3]) and 0.016 µM at rat MASP2 (setting [4]).

Turning to `CC[C@H](C)[C@@H]1NC(=O)[C@H](CN)NC(=O)[C@@H]2CCCN2C(=O)[C@H]([C@@H](C)CC)NC(=O)[C@H]2NC(=O)[C@H]([C@@H](C)CC)NC(=O)[C@@H]3CCCN3C(=O)[C@@H]3CCCN3C(=O)[C@H](CC(C)(C)C)NC(=O)[C@H](CO)NC(=O)[C@H](CCCNC(=N)N)NC(=O)[C@H](CO)NC(=O)[C@H](CSSC2(C)C)NC1=O` [Example 55, N-{3-[(6S,9S,12S,15S,18R,21S,24S,26aS,32S,35R,38S,40aS,45aS)-24-(aminomethyl)-21,32,38-tri[(2S)-butan-2-yl]-6-(2,2-dimethylpropyl)-9,15-bis(hydroxymethyl)-46,46-dimethyl-5,8,11,14,17,20,23,26,31,34,37,40,45-tridecaoxotetratetracontahydro-1H-18,35-(methanodithiomethano)tripyrrolo[1,2-a:1′,2′-d:1″,2″-p][1,4,7,10,13,16,19,22,25,28,31,34,37]tridecaazacyclononatriacontin-12-yl]propyl}guanidine] (cyclo(CSRS[tBuAla]PPI[Pen]IP[Dap]I); disulfide 1-9), the IC50 came out at 0.9 µM on human MASP2 (setting [5]), 0.046 µM at human MASP1 (setting [3]) and 0.382 µM in test [1] (setting [6]).

As to `CC[C@H](C)[C@@H]1NC(=O)CNC(=O)[C@H](CN)NC(=O)[C@H](CN)NC(=O)[C@H](CC(=O)O)NC(=O)[C@@H]2CCCN2C(=O)[C@H]([C@@H](C)CC)NC(=O)[C@@H]2CSSC[C@H](NC1=O)C(=O)N[C@@H](CO)C(=O)N[C@@H](CCCNC(=N)N)C(=O)N[C@@H](CO)C(=O)N[C@@H](CC(C)C)C(=O)N1CCC[C@H]1C(=O)N1CCC[C@H]1C(=O)N[C@@H]([C@@H](C)CC)C(=O)N2` [Example 23] (cyclo(CIPD[Dap][Dap]GICSRSLPPI); disulfide 1-9), the IC50 at human MASP2 (setting [5]) turned out to be 0.02 µM; at human MASP1 (setting [3]) it was 0.18 µM; in test [1] (setting [6]), 0.121 µM.

Take `CC[C@H](C)[C@@H]1NC(=O)[C@@H]2CCCN2C(=O)[C@@H]2CCCN2C(=O)[C@H](CC(C)(C)C)NC(=O)[C@H](CO)NC(=O)[C@H](CCCNC(=N)N)NC(=O)[C@H](CO)NC(=O)[C@@H]2CSSC(C)(C)[C@H](NC1=O)C(=O)N[C@@H]([C@@H](C)CC)C(=O)N1CCC[C@H]1C(=O)NCCCCCC(=O)NC[C@H]1CC[C@@H](CC1)C(=O)N[C@@H]([C@@H](C)CC)C(=O)N2` [Example 59, N-{3-[(1R,4S,7S,13S,19S,22S,25S,28S,31R,34S,37S,40S,51S,57S)-4,34,57-tri[(2S)-butan-2-yl]-19-(2,2-dimethylpropyl)-22,28-bis(hydroxymethyl)-60,60-dimethyl-3,6,12,18,21,24,27,30,33,36,43,50,56,59-tetradecaoxo-61,62-dithia-2,5,11,17,20,23,26,29,32,35,42,49,55,58-tetradecaazahexacyclo[29.28.4.2^37,400.0^7,110.0^13,170.0^51,55]pentahexacontan-25-yl]propyl}guanidine]: the IC50 at rat MASP1 (setting [2]) was 0.0486 µM; at human MASP2 (setting [5]), 0.0057 µM; on human MASP1 (setting [3]), 0.011 µM; in test [1] (Average IC50, read-out: Human C3-[…] IC50), 0.177 µM.
